Test results: ChEMBL document CHEMBL1201862, “PubChem BioAssay data set” (2004)
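Briefly, cells in 96-well plates were exposed to five compound concentrations for 48 h, and endpoints were estimated by linear interpolation. GI50 marks 50% less growth.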 Active and inactive are the calls of the source. Cut-off read from the data, not from the text of the source: active = GI50 up to about 1.1 µM and inactive = higher. Square brackets hold non-standard residues; d marks the D form. Peptide text beside a SMILES is read from it. * marks the point of attachment. X26 = COC1=CC(=O)N(C(=O)[C@@H](O*)C(C)C)[C@H]1Cc1ccccc1; Bn2Val = CC(C)[C@@H](C(=O)*)N(Cc1ccccc1)Cc1ccccc1; NMeV = CN[C@H](C(=O)O)C(C)C; dNMeA = CN[C@H](C)C(=O)O

How the values were obtained:
Test in all cases: NCI tumour cell line growth inhibition, 48 h
BT-549 = test system: BT-549
CAKI-1 = test system: CAKI-1
CCRF-CEM = test system: CCRF-CEM
EKVX = test system: EKVX
HCT-15 = test system: HCT-15
HL-60 = test system: HL-60
Hs-578T = test system: Hs-578T
KM12 = test system: KM12
LOX IMVI = test system: LOX IMVI
MDA-MB-231 = test system: MDA-MB-231
NCI-H522 = test system: NCI-H522
NCI/ADR-RES = test system: NCI/ADR-RES
OVCAR-4 = test system: OVCAR-4
RXF 393 = test system: RXF 393
SNB-75 = test system: SNB-75
SR = test system: SR
T47D = test system: T47D
UACC-257 = test system: UACC-257
UACC-62 = test system: UACC-62
UO-31 = test system: UO-31

Structure (SMILES)	GI50 (BT-549)	GI50 (CAKI-1)	GI50 (CCRF-CEM)	GI50 (EKVX)	GI50 (HCT-15)	GI50 (HL-60)	GI50 (Hs-578T)	GI50 (KM12)	GI50 (LOX IMVI)	GI50 (MDA-MB-231)	GI50 (NCI-H522)	GI50 (NCI/ADR-RES)	GI50 (OVCAR-4)	GI50 (RXF 393)	GI50 (SNB-75)	GI50 (SR)	GI50 (T47D)	GI50 (UACC-257)	GI50 (UACC-62)	GI50 (UO-31)
CC(C)(CN)CN	> 100 µM (inactive)	> 100 µM (inactive)	> 100 µM (inactive)	> 100 µM (inactive)	> 100 µM	> 100 µM (inactive)	> 100 µM (inactive)	> 100 µM (inactive)	> 100 µM (inactive)	> 100 µM (inactive)	> 100 µM (inactive)	> 100 µM (inactive)	> 100 µM (inactive)	> 100 µM (inactive)	> 100 µM (inactive)	> 100 µM (inactive)	> 100 µM (inactive)	> 100 µM (inactive)	> 100 µM (inactive)	> 100 µM (inactive)
COC1=CC(=O)N(C(=O)[C@@H](OC(=O)[C@@H](C)N(C)C(=O)[C@@H]2CCCN2C(=O)[C@H](C(C)C)N(C)C(=O)[C@@H](NC(=O)[C@H](C(C)C)N(Cc2ccccc2)Cc2ccccc2)C(C)C)C(C)C)[C@H]1Cc1ccccc1 (Bn2Val-V[NMeV]P[dNMeA]-X26)	> 100 µM (inactive)	> 100 µM (inactive)	> 100 µM (inactive)	> 44.5 µM (inactive)	> 100 µM		> 100 µM (inactive)	> 31.3 µM (inactive)	> 100 µM (inactive)	13.4 µM (inactive)	> 100 µM (inactive)	> 100 µM (inactive)	> 100 µM (inactive)	> 26.2 µM (inactive)		> 100 µM (inactive)	> 100 µM (inactive)	> 26.1 µM (inactive)	> 60.7 µM (inactive)	6.44 µM (inactive)
COc1ccc(Br)c(/C=N\c2cccc3cc(OC)c(OC)cc23)c1	8.3 µM (inactive)	> 82.4 µM (inactive)	2.82 µM (inactive)	97.1 µM (inactive)	2.47 µM	0.865 µM (active)	5.21 µM (inactive)	21.1 µM (inactive)	4.57 µM (inactive)	15.5 µM (inactive)	> 61.1 µM (inactive)	16.8 µM (inactive)	40.6 µM (inactive)	39.1 µM (inactive)	38.8 µM (inactive)	2.42 µM (inactive)	58.5 µM (inactive)	69.8 µM (inactive)	10.3 µM (inactive)	21.5 µM (inactive)
CN(C)CCCNCc1cccc2ccccc12	> 100 µM (inactive)		> 100 µM (inactive)	> 100 µM (inactive)	> 100 µM	> 100 µM (inactive)	> 100 µM (inactive)	> 100 µM (inactive)	> 100 µM (inactive)	> 100 µM (inactive)		> 100 µM (inactive)	> 100 µM (inactive)	> 100 µM (inactive)	> 100 µM (inactive)	25.6 µM (inactive)	> 100 µM (inactive)	> 100 µM (inactive)	> 100 µM (inactive)	> 100 µM (inactive)
N#Cc1c(-c2ccc(Cl)cc2)cc(-c2ccc(Nc3ccnc4cc(C(F)(F)F)ccc34)cc2)[nH]c1=O	17.4 µM (inactive)	> 43.4 µM (inactive)	3.7 µM (inactive)	> 100 µM (inactive)	> 100 µM	10.8 µM (inactive)	20 µM (inactive)	67.1 µM (inactive)	2.94 µM (inactive)	19.3 µM (inactive)	50 µM (inactive)	> 100 µM (inactive)	8.41 µM (inactive)	8.93 µM (inactive)	11.7 µM (inactive)	2.72 µM (inactive)	4.79 µM (inactive)	37.2 µM (inactive)	21.9 µM (inactive)	
COc1ccc(\N=C/C=C/C(=C/COC(C)=O)OC(C)=O)cc1	33.3 µM (inactive)	23.6 µM (inactive)	4.56 µM (inactive)	51.8 µM (inactive)	36.6 µM	19.1 µM (inactive)	62.8 µM (inactive)	28.6 µM (inactive)	25.6 µM (inactive)	19.6 µM (inactive)	6.62 µM (inactive)	39.3 µM (inactive)	27.2 µM (inactive)	21.4 µM (inactive)	> 100 µM (inactive)	39.4 µM (inactive)	72.9 µM (inactive)	27.4 µM (inactive)	37.1 µM (inactive)	
COC(=O)Nc1nc2ccccc2[nH]1 [CARBENDAZIM]	10.1 µM (inactive)	11.4 µM (inactive)	21.2 µM (inactive)	> 52.7 µM (inactive)	3.37 µM	4.26 µM (inactive)	12.9 µM (inactive)	4.26 µM (inactive)	8.73 µM (inactive)	27.8 µM (inactive)		3.13 µM (inactive)	> 47.4 µM (inactive)	17.5 µM (inactive)	9.38 µM (inactive)	7.33 µM (inactive)	9.51 µM (inactive)	> 61 µM (inactive)	4 µM (inactive)	20.7 µM (inactive)
CC(C)N(c1cc2c(cc1F)c(=O)c(C(=O)O)cn2-c1ccc(N2CCN(C)CC2)cn1)C(C)C	86.7 µM (inactive)	> 100 µM (inactive)	> 100 µM (inactive)	> 100 µM (inactive)	> 100 µM	> 100 µM (inactive)	> 100 µM (inactive)	> 100 µM (inactive)	> 100 µM (inactive)	> 100 µM (inactive)		> 100 µM (inactive)	> 100 µM (inactive)	> 100 µM (inactive)	> 100 µM (inactive)	> 100 µM (inactive)	> 100 µM (inactive)	> 100 µM (inactive)	> 10 µM (inactive)	> 100 µM (inactive)
Cc1[nH]c(=O)[nH]c(=O)c1N(CCF)CCCl [FLUORODOPAN]	344 µM (inactive)	181 µM (inactive)	57.4 µM (inactive)			70.8 µM (inactive)	635 µM (inactive)	429 µM (inactive)		362 µM (inactive)	143 µM (inactive)	240 µM (inactive)	353 µM (inactive)	219 µM (inactive)		79.6 µM (inactive)	292 µM (inactive)	443 µM (inactive)	283 µM (inactive)	
CC(NC(=O)CNP(=O)(c1ccccc1)c1ccccc1)C(=O)NC(Cc1ccccc1)C(=O)OCc1ccccc1 (stereo not given)	> 100 µM (inactive)	> 100 µM (inactive)	> 10 µM (inactive)	24.1 µM (inactive)	> 100 µM	28.6 µM (inactive)	27.5 µM (inactive)	25.6 µM (inactive)	26.7 µM (inactive)	35.6 µM (inactive)	19.6 µM (inactive)	> 100 µM (inactive)		21 µM (inactive)	19.6 µM (inactive)	24.9 µM (inactive)	> 100 µM (inactive)	> 100 µM (inactive)	36.3 µM (inactive)	> 100 µM (inactive)
COc1cc(Br)c(OC)c2c(OC)cc(C)cc12	96.6 µM (inactive)		42.5 µM (inactive)		> 100 µM	14.7 µM (inactive)	52 µM (inactive)	> 100 µM (inactive)	> 100 µM (inactive)	89.9 µM (inactive)	> 100 µM (inactive)	> 100 µM (inactive)		50.1 µM (inactive)	14.3 µM (inactive)	0.731 µM (active)	54.5 µM (inactive)	> 100 µM (inactive)	> 100 µM (inactive)	> 100 µM (inactive)
Cc1cc(C)cc(C(=N)c2ccccc2Cc2cccc3ccccc23)c1	37.8 µM (inactive)	19.5 µM (inactive)	9.73 µM (inactive)	16.7 µM (inactive)	16.1 µM	13.3 µM (inactive)	3.47 µM (inactive)	11.4 µM (inactive)	18 µM (inactive)	> 100 µM (inactive)	7.28 µM (inactive)	20.2 µM (inactive)	15.8 µM (inactive)	17.3 µM (inactive)		14.2 µM (inactive)	16.3 µM (inactive)	22.2 µM (inactive)	13.9 µM (inactive)	26.4 µM (inactive)
O=C(CNc1cccc([N+](=O)[O-])c1)Nn1c(-c2ccccc2)nc2ccccc2c1=O	1.87 µM (inactive)		0.316 µM (active)	2.41 µM (inactive)	0.419 µM	0.422 µM (active)	0.581 µM (active)	1.18 µM (inactive)	0.221 µM (active)	0.776 µM (active)	0.433 µM (active)	0.282 µM (active)	2.18 µM (inactive)	0.37 µM (active)		0.271 µM (active)	2.17 µM (inactive)	2.15 µM (inactive)	0.212 µM (active)	0.743 µM (active)
C[C@]12CC(c3ccccc3O1)C(C#N)C(=O)N2 (stereo not given in full)	> 100 µM (inactive)	> 100 µM (inactive)	> 100 µM (inactive)	> 100 µM (inactive)	> 100 µM	> 100 µM (inactive)	> 100 µM (inactive)	> 100 µM (inactive)	> 100 µM (inactive)	> 100 µM (inactive)		> 100 µM (inactive)	> 100 µM (inactive)	> 100 µM (inactive)	> 100 µM (inactive)	> 100 µM (inactive)	> 100 µM (inactive)	> 100 µM (inactive)	> 100 µM (inactive)	
CCCCC/C=C\C=C\CCCCCCCCC(=O)OC	> 100 µM (inactive)	> 100 µM (inactive)		> 100 µM (inactive)	> 100 µM	> 100 µM (inactive)	> 100 µM (inactive)	> 100 µM (inactive)	29.8 µM (inactive)	> 100 µM (inactive)		> 100 µM (inactive)	> 100 µM (inactive)	> 100 µM (inactive)	> 100 µM (inactive)	> 100 µM (inactive)	> 100 µM (inactive)	> 100 µM (inactive)		13.9 µM (inactive)
